According to patent US12668770B2 (priority 2017, dated 2026):

What was measured:
[1] = tested on: ΔNR strain (NR gene-disrupted strain); assay type: cell-based, Nannochloropsis oculata; parameters: key to viability, ΔNR strain: −: Not grown; +: Suppressed in growth, (somewhat) dye fading; ++: Suppressed in growth; +++: Fully grown
[2] = tested on: WT strain of Nannochloropsis oculata NIES-2145; assay type: cell-based; parameters: key to viability, WT strain: −: Not grown; +: Suppressed in growth, (somewhat) dye fading; ++: Suppressed in growth; +++: Fully grown
[3] = tested on: ΔNRTΔNR strain (NRT-NR gene-disrupted strain); assay type: cell-based, Nannochloropsis oculata; parameters: key to viability, ΔNRTΔNR strain: −: Not grown; +: Suppressed in growth, (somewhat) dye fading; ++: Suppressed in growth; +++: Fully grown
[4] = tested on: ΔNRT strain (NRT gene-disrupted strain); assay type: cell-based, Nannochloropsis oculata; parameters: key to viability, ΔNRT strain: −: Not grown; +: Suppressed in growth, (somewhat) dye fading; ++: Suppressed in growth; +++: Fully grown

## [K+].[O-][Cl+2]([O-])[O-] [KClO3, potassium chlorate]
[1]
  growth of ΔNR strain on chloric acid-containing agar medium (FIG. 7): growth was unable to be confirmed
  viability, ΔNR strain: −
[2]
  growth of WT strain on chloric acid-containing agar medium (FIG. 7): killed
  viability, WT strain: −
[3]
  growth of ΔNRTΔNR strain (Table 2): growth was able to be achieved
  growth of ΔNRTΔNR strain on chloric acid-containing agar medium (FIG. 7): more favorable growth was observed
  viability, ΔNRTΔNR strain: + and +++ and ++
[4]
  growth of ΔNRT strain (Table 2): growth was confirmed
  growth of ΔNRT strain on chloric acid-containing agar medium (FIG. 7): growth was also confirmed
  viability, ΔNRT strain: − and ++
